Patent US20260035360A1, “INHIBITORS OF MYC AND USES THEREOF” (Northwestern University, priority 2022, published 2026)

Legend:
Type in all cases: cell-based
PC3 cells = assay: PC3 cell viability, CellTitreGlo Assay, 72 hrs; details: Homo sapiens, PC-3
Experimental: (§1) Table 2. Biological data of selected compounds. For IC50 determination. PC3 and PC12 cells were treated with increasing concentrations of the indicated compounds for 72 hrs and cell viability assessed using CellTitreGlo Assay (Promega). For MYC and ATF4 protein level determination. PC3 cells were treated with the indicated compounds for 24 hr sand cell lysates processed for western blot with MYC and ATF4 antibodies using Actin as a control. Quantification analyses were performed by Biorad ChemiDoc Imager and Bio-Rad Image Lab software.

ATF4 = ATF4 protein level in PC3 cells by western blot, 24 hr; details: Homo sapiens, PC-3, PC3, 24 h, Actin control, read-out: Relative ATF4 protein at 10 μM (fold change, PC3 24 h)
Experimental: as §1

PC12 cells = assay: PC12 cell viability, CellTitreGlo Assay, 72 hrs; details: Rattus norvegicus, PC-12
Experimental: as §1

MYC = target: T1, MYC (Homo sapiens, UniProt P01106); assay: MYC protein level in PC3 cells by western blot, 24 hr; details: PC-3, 24 h, PC3, 24 h, Actin control, read-out: Relative MYC protein at 10 μM (%, PC3 24 h)
T1 construct: endogenous in cells; host or cells: PC3 cells
T1 sequence (P01106 whole entry): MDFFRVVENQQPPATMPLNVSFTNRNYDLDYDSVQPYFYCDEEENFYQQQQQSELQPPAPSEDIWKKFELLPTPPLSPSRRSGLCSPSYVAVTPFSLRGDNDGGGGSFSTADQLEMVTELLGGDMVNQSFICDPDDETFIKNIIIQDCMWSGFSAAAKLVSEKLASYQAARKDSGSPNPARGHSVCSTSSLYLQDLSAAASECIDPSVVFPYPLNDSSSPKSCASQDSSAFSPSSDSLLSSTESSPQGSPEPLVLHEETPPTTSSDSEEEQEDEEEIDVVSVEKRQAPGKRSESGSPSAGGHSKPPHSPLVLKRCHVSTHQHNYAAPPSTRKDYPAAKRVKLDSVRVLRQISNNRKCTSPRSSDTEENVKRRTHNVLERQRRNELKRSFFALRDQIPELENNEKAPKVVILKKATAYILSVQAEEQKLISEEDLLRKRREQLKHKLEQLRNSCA
Experimental: as §1

| Structure (SMILES) | IC50 (PC3 cells) [µM] | remaining activity at 10 µM (MYC) [%] | fold induction at 10 µM (ATF4) | IC50 (PC12 cells) [µM] |
| --- | --- | --- | --- | --- |
| Cn1nc(C(F)(F)F)c(Cl)c1-c1cc(F)c(COc2ccc(Cl)cc2)c(-c2ccc(Cl)c(C(F)(F)F)c2)c1O [NUCC-0227063] | 0.985 | 37.2 | 12.4 | 5.02 |
| CN(C)c1c(Cl)cc(-c2cc(C(F)(F)F)nn2C)c(O)c1-c1ccc(Cl)c(C(F)(F)F)c1 [NUCC-0226530] | 12 | 35.5 | 3 | 9.4 |
| Cn1nc(C#N)cc1-c1ccc(OCc2ccc(Cl)cc2)c(-c2ccc(Cl)c(C(F)(F)F)c2)c1O [NUCC-0226914] | 1.01 | 48.5 | 14.1 | 3.5 |
| Cn1nc(C(F)(F)F)c(Cl)c1-c1cc(Cl)c(Oc2ccc(Cl)cc2)c(-c2ccc(Cl)c(C(F)(F)F)c2)c1O [NUCC-0227246] | 0.91 | 37.3 | 23.5 | 5.78 |
| Cn1nc(C(F)(F)F)cc1-c1cc2c(c(-c3ccc(Cl)c(C(F)(F)F)c3)c1O)CN(Cc1ccc(Cl)cc1)CC2 [NUCC-0227169] | 3.28 | 41.8 | 14.6 | 8.01 |
| Cn1nc(C(F)(F)F)c(Cl)c1-c1cc(Cl)c(COc2ccc(Cl)cc2Cl)c(-c2ccc(Cl)c(C(F)(F)F)c2)c1O [NUCC-0227038] | 1.61 | 34.5 | 15.1 | 15.3 |
| Cn1nc(C(F)(F)F)cc1-c1ccc(OCc2ccc(Cl)cc2)c(-c2ccc(Cl)c(Cl)c2)c1O [NUCC-0226496] | 5.3 | 25.4 | 10.3 | – |
| COc1ccc(-c2c(Cl)c(C(F)(F)F)nn2C)c(O)c1-c1ccc(Cl)c(C(F)(F)F)c1 [NUCC-0226501] | 4.6 | 59.4 | 9.3 | – |
| Cn1nc(C(F)(F)F)cc1-c1cc2c(c(-c3ccc(Cl)c(C(F)(F)F)c3)c1O)OC(c1ccc(Cl)cc1)CC2 (stereo not shown) [NUCC-0227173] | 4.74 | 62.9 | 9 | 14.1 |
| Cn1nc(C(F)(F)F)cc1-c1ccc(N(CCCOCCC(=O)NCCOCCOCCNc2ccc3c(c2)C(=O)N(C2CCC(=O)NC2=O)C3=O)C(=O)c2ccc(Cl)c(C(F)(F)F)c2)cc1O (stereo not shown) [NUCC-0226293] | 4.7 | 18.4 | 3.6 | – |
| C[C@H](Oc1ccc(-c2cc(C(F)(F)F)nn2C)c(O)c1-c1ccc(Cl)c(C(F)(F)F)c1)c1ccccc1 [NUCC-0226434] | 4.3 | 20 | 9.4 | – |
| Cn1nc(C(F)(F)F)cc1-c1ccc(NC(c2ccccc2)c2ccccc2)c(-c2ccc(Cl)c(C(F)(F)F)c2)c1O [NUCC-0226502] | 14.1 | 122 | 1.4 | – |
| Cn1nc(C(F)(F)F)cc1-c1ccc(N)c(-c2ccc(Cl)c(C(F)(F)F)c2)c1O [NUCC-0226520] | 12.7 | 67.5 | 1.1 | – |
| CN1C(=O)CCC(N2C(=O)c3cccc(NCCOCCOCCNC(=O)CCOCCCN(C(=O)c4ccc(Cl)c(C(F)(F)F)c4)c4ccc(-c5cc(C(F)(F)F)nn5C)c(O)c4)c3C2=O)C1=O (stereo not shown) [NUCC-0226292] | 10.1 | 65.1 | 1.1 | – |
| COCCCN(C(=O)c1ccc(C(F)(F)F)c(Cl)c1)c1ccc(-c2cc(C(F)(F)F)nn2C)c(O)c1 [NUCC-0226267] | 4.6 | 46.4 | 8 | – |

Second part, led by results:

| IC50 (PC3 cells) [µM] | remaining activity at 10 µM (MYC) [%] | Structure (SMILES) | fold induction at 10 µM (ATF4) | IC50 (PC12 cells) [µM] |
| --- | --- | --- | --- | --- |
| 4.5 | 19.8 | Cn1nc(C(F)(F)F)cc1-c1cc(Cl)c(N)c(-c2ccc(Cl)c(C(F)(F)F)c2)c1O [NUCC-0226528] | 2 | 30.5 |
| 0.74 | 69.8 | Cn1nc(C(F)(F)F)cc1-c1ccnc(-c2ccc(Cl)c(C(F)(F)F)c2)c1O [NUCC-0226595] | 6.3 | 4.03 |
| 3.8 | 15.6 | Cc1ccc(C2(Oc3ccc(-c4cc(C(F)(F)F)nn4C)c(O)c3-c3ccc(Cl)c(C(F)(F)F)c3)CC2)cc1 [NUCC-0226495] | 11.5 | 597 |
| 2.4 | 37.3 | Cn1nc(C(F)(F)F)cc1-c1ccc(OCc2ccc(Cl)cc2)c(-c2ccc(Cl)c(C#N)c2)c1O [NUCC-0226499] | 17.1 | 13.5 |
| 2.1 | 28.4 | Cn1nc(C(F)(F)F)cc1-c1ccc(N(CC23CC4CC(CC(C4)C2)C3)C(=O)c2ccc(Cl)c(C(F)(F)F)c2)cc1O [NUCC-0226225] | 15.2 | 14.5 |
| 8.5 | 53.6 | Cn1nc(C(F)(F)F)cc1-c1ccc(N(CCCOCCC(=O)NCCOCCOCCNc2cccc3c2C(=O)N(C2CCC(=O)NC2=O)C3=O)C(=O)c2ccc(Cl)c(C(F)(F)F)c2)cc1O (stereo not shown) [NUCC-0226231] | 14.3 | – |
| 3.4 | 30.3 | Cc1ccc([C@@H](C)Oc2ccc(-c3cc(C(F)(F)F)nn3C)c(O)c2-c2ccc(Cl)c(C(F)(F)F)c2)cc1 [NUCC-0226436] | 11.8 | – |
| 1.6 | 72.4 | COc1c(Cl)cc(-c2cc(C(F)(F)F)nn2C)c(O)c1-c1ccc(Cl)c(C(F)(F)F)c1 [NUCC-0226500] | 7.7 | 8.6 |
| 6 | 54.2 | Cn1nc(C(F)(F)F)cc1-c1ccc(N(CCCOCCC(=O)NCCOCCNc2cccc3c2C(=O)N(C2CCC(=O)NC2=O)C3=O)C(=O)c2ccc(Cl)c(C(F)(F)F)c2)cc1O (stereo not shown) [NUCC-0226288] | 6.6 | – |
| > 50 | 94.4 | Cn1cncc1-c1ccc(OCc2ccc(Cl)cc2)c(-c2ccc(Cl)c(C(F)(F)F)c2)c1O [NUCC-0226660] | 2.5 | 9.22 |
| 3.8 | 42.1 | C[C@@H](C(=O)N[C@H](C(=O)N1C[C@@H](NC(=O)COCCOCCNC(=O)CCOCCCN(C(=O)c2ccc(Cl)c(C(F)(F)F)c2)c2ccc(-c3cc(C(F)(F)F)nn3C)c(O)c2)C[C@H]1C(=O)N[C@@H]1CCCc2ccccc21)C1CCCCC1)N(C)C(=O)OC(C)(C)C [NUCC-0226299] | 5.4 | 11.3 |
| 1.1 | 48.5 | Cn1nc(C(F)(F)F)cc1-c1ccc(OCc2ccc(OCCOCCNc3cccc4c3C(=O)N(C3CCC(=O)NC3=O)C4=O)cc2)c(-c2ccc(Cl)c(C(F)(F)F)c2)c1O (stereo not shown) [NUCC-0226301] | 3.2 | 3.8 |
| 0.74 | 35.4 | Cn1nc(C#N)cc1-c1cc(Cl)c(COc2ccc(Cl)cc2)c(-c2ccc(Cl)c(C(F)(F)F)c2)c1O [NUCC-0227065] | 13.4 | 3.8 |
| 3.88 | 43.7 | Cn1nc(C(F)(F)F)cc1-c1ccc(Cc2ccc(Cl)cc2)c(-c2ccc(Cl)c(C(F)(F)F)c2)c1O [NUCC-0226566] | 10.5 | – |
| 14.2 | 86.9 | Cn1nc(N)cc1-c1ccc(OCc2ccc(Cl)cc2)c(-c2ccc(Cl)c(C(F)(F)F)c2)c1O [NUCC-0226915] | 0.95 | 10.5 |
| 0.399 | 42 | Cn1nc(C(F)(F)F)c(Cl)c1-c1ccc(COc2ccc(Cl)cc2Cl)c(-c2ccc(Cl)c(C(F)(F)F)c2)c1O [NUCC-0227064] | 12.7 | 8.27 |
| 15.6 | 56.4 | Cn1nc(C(F)(F)F)cc1-c1ccc(N(CCCOCCC(=O)NCCCCCCOc2cccc3c2C(=O)N(C2CCC(=O)NC2=O)C3=O)C(=O)c2ccc(Cl)c(C(F)(F)F)c2)cc1O (stereo not shown) [NUCC-0226229] | 16.4 | – |
| 5.1 | 27.4 | CC(=O)N[C@@H](C(=O)N1C[C@@H](O)C[C@@H]1C(=O)NCc1ccc(-c2scnc2C)cc1OCCOCCNC(=O)CCOCCCN(C(=O)c1ccc(Cl)c(C(F)(F)F)c1)c1ccc(-c2cc(C(F)(F)F)nn2C)c(O)c1)C(C)(C)C [NUCC-0226290] | 2.9 | – |
| 22.3 | 102 | Cc1ncsc1-c1ccc(CNC(=O)[C@@H]2C[C@@H](O)CN2C(=O)[C@@H](NC(=O)CCCCCCCCCCNC(=O)CCOCCCN(C(=O)c2ccc(Cl)c(C(F)(F)F)c2)c2ccc(-c3cc(C(F)(F)F)nn3C)c(O)c2)C(C)(C)C)cc1 [NUCC-0226227] | 10.2 | – |
| 5.1 | 81.9 | Cc1ncsc1-c1ccc(CNC(=O)[C@@H]2C[C@@H](O)CN2C(=O)[C@@H](NC(=O)CCCCCCCCNC(=O)CCOCCCN(C(=O)c2ccc(Cl)c(C(F)(F)F)c2)c2ccc(-c3cc(C(F)(F)F)nn3C)c(O)c2)C(C)(C)C)cc1 [NUCC-0226226] | 10.6 | – |
| 5.4 | 47.4 | Cc1ccc([C@H](C)Oc2ccc(-c3cc(C(F)(F)F)nn3C)c(O)c2-c2ccc(Cl)c(C(F)(F)F)c2)cc1 [NUCC-0226435] | 4.7 | – |
